Test results from paper PMC9946934, “Reconstitution of human pyroptotic cell death in Saccharomyces cerevisiae” (Scientific Reports, 2023).

Tests used:
Type in all cases: cell-based, Saccharomyces cerevisiae
caspase-8 = target: T1, caspase-8 (Homo sapiens, UniProt Q14790); assay: growth rescue of S. cerevisiae expressing human caspase-8
T1 construct: gene CASP8
From the text: growth rescue of S. cerevisiae expressing human caspase-8 on caspase-8 | higher concentrations of QVD were needed to restore the growth rate of yeast expressing caspase-8

caspase-1 = target: T2, caspase-1 (Homo sapiens, UniProt P29466); assay: growth rescue of S. cerevisiae expressing human caspase-1
T2 construct: gene CASP1
T2 sequence (P29466 1-404): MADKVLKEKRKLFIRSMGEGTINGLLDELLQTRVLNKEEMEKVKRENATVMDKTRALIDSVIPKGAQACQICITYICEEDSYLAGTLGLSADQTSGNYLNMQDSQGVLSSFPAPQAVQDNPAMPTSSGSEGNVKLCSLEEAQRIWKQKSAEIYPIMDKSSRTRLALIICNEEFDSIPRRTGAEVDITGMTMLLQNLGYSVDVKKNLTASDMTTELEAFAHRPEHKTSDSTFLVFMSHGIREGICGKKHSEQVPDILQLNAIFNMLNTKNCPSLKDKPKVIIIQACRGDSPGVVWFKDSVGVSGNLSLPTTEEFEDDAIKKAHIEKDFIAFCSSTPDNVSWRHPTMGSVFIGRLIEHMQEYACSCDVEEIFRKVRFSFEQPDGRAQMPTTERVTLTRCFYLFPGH

caspase-3 = target: T3, caspase-3 (Homo sapiens, UniProt P42574); assay: growth rescue of S. cerevisiae expressing active human caspase-3
T3 construct: gene CASP3; active caspase-3 fused to β-galactosidase (caspase-3–LacZ)
T3 sequence (P42574 29-175): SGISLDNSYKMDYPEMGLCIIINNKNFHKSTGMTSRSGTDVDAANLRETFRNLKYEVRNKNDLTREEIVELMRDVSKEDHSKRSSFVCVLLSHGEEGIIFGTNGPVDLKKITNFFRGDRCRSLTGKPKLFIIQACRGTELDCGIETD
T3 sequence (P42574 176-277): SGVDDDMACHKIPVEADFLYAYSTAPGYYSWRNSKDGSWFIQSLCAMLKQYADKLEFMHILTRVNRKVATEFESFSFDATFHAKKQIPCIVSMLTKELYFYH

T1 sequence (Q14790 whole entry): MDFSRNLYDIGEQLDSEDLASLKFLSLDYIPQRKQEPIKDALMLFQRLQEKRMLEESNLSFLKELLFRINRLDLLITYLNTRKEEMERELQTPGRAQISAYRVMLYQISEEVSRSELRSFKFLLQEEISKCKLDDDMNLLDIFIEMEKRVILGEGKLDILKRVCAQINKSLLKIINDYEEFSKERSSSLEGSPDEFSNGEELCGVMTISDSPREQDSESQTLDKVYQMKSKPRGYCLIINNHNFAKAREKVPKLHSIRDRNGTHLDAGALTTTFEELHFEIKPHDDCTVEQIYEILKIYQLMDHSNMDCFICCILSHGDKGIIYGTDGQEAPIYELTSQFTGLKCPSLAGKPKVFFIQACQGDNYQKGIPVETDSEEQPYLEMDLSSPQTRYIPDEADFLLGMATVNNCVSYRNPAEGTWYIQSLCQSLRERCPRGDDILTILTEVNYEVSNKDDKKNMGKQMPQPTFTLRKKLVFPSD

CC(C)[C@H](NC(=O)c1ccc2ccccc2n1)C(=O)N[C@@H](CC(=O)O)C(=O)COc1c(F)cccc1F [QVD, Q-VD-OPh]
IC50 (caspase-8): 30 µM | IC50 (caspase-1): 21.4 µM | IC50 (caspase-3): 1.7 µM
